Data reported in patent publication US9096591B2, “Tetracyclic compounds” (Medivation Technologies, Inc., priority 2007, dated 2015).
Read-outs that look alike come from different tables or passages of the source.

Experiments:
AMPA receptors = experiment: AMPA-receptor activity: kainic acid-induced currents in Purkinje cells (patch-clamp); type: cell-based, rat; conditions: mean±SEM, control=100%
Method: The analysis of effects of the testing compounds on AMPA receptors was carried out using an electrophysiological patch-clamp method in whole cell configuration (Hamill et al., 1980) of the Purkinje cell fresh isolated from the cerebellum of juvenile rats (12-15 days). The isolation was carried out using a modified method (Kaneda et al., 1988) in which cerebral 400-600 μm sections were incubated for 60 min in the temperature controlled chamber in 10 mL of buffer solution (150 mM NaCl, 5 mM KCl, 2 mM CaCl2, 2 mM MgSO4.7H2O, 10 mM HEPES, 15 mM glucose, pH 7.42). The incubation solution was exchanged with the incubation buffer with pronase (2 mg/mL) and collagenase (1 mg/mL) for 70 min. After a 20 min wash with the original buffer, all sections were placed into the Petri dish and were separated using a Pasteur pipette. All solutions were constantly aerated with 100% O2 at 34° C. The composition of extracellular saline was: 150 mM NaCl, 5 mM KCl, 2.6 mM CaCl2, 2 mM MgSO4.7H2O, 10 mM HEPES, 15 mM glucose, pH 7.36. The transmembrane current was induced as a result of the activation of AMPA receptors by a superfusion with the agonist solution (kainic acid). The currents were measured using borosilicate microelectrodes (resistance […]) filled with 100 mM KCl, 11 mM EGTA, 1 mM CaCl2, 1 mM MgCl2, 10 mM HEPES, 5 mM ATP, pH 7.2. The currents were registered using EPC-9 (HEKA, Germany) and recorded with Pulse software package which was also purchased from HEKA. The analysis of observations was carried out using Pulsefit (HEKA, Germany) and the statistical significance was analyzed using a Student's T-test criteria. Data are presented as mean±SEM in % of control values.
Compounds of the invention were tested in 3-5 neurons. Every concentration of compound was repeated three-four times in every neuron. Data are presented as mean±SEM in % of Control values (Table 13+14, FIGS. 8-12). Control value=100%.

rat brain mitochondria [1] = experiment: Ca2+-induced swelling of mitochondria (MPT pore opening); type: biochemical, Wistar rats; conditions: for A540 increase in mitochondrial suspension after addition of 100 μM of compound: 100 μM compound
Method: Rat liver and brain mitochondria were prepared from male Wistar rats. The rats were euthanized in a CO2 chamber followed by decapitation the procedure being in compliance with the Guidelines for Animal Experiments at IPAC RAS. […]
Brain mitochondria were isolated from the pooled forebrains of two rats. The modified method of Sims was used to isolate and purify brain mitochondria in a Percoll gradient. The brain was homogenized in “buffer A” (225 mM mannitol, 75 mM sucrose, 5 mM HEPES, 1 mM EGTA, pH 7.4 [KOH]) and centrifuged for 10 min at 1300 g. The supernatant was centrifuged for 10 min at 10000 g, and then the pellet was suspended in 15% Percoll and layered on a discontinuous gradient consisting of 40 and 23% Percoll, respectively, which was then centrifuged for 10 min at 30000 g without using brakes. The mitochondria were collected from the interface of the lower two layers and after resuspension in “buffer A”, the suspension was centrifuged at 16600 g for 10 min, then the pellet was resuspended in “buffer A”, BSA (10 mg/mL) was added to bind free fatty acids; and the suspensions was centrifuged again at 6300 g for 10 min. Following centrifugation the pelleted mitochondria were re-suspended in isolation medium without EGTA to achieve a protein concentration of 15-20 mg/ml.
Mitochondrial swelling caused by influx of solutes through open PT pores results in an increase in light transmission (i.e., a reduced turbidity). This turbidity change offers a convenient and frequently used assay of the MPT by measurement of absorbance in mitochondrial suspensions. In the present study, the MPT induced by Ca^2+ and inorganic phosphate (Ca/Pi) was monitored by absorbance changes at 540 nm in a cuvette in a Beckman DU 640 spectrophotometer in 1 ml of buffer A plus 0.8 μM rotenone, 5 mM succinate, 1 mM KH2PO4 and 0.5 mg or 0.2 mg protein of isolated liver or brain mitochondria, accordingly. Reaction was started by the addition of triggering agent (Ca^2+). Pre-treatment and reaction were performed at 30° C. Swelling rate was quantified as ΔA540/min/mg, calculated, in all cases, from a tangent to the steepest portion of the plot of A540 versus time.
Ca^2+-induced Swelling of mitochondria was used as the primary screening test for compounds influence on MPT pore opening. […] But the inhibition of swelling may be connected not only with direct inhibition of MPT pore opening but also with the impairment of respiratory function of mitochondria and with the compounds action on calcium transport into mitochondria. For the primary estimation of these possibilities the mitochondrial membrane potential and calcium retention capacity of mitochondria were measured. […] New synthesized compounds (except C-14 and C-43) alone induced an increase of brain mitochondria suspension turbidity. The mechanism of such effect needs additional investigations.

rat brain mitochondria [2] = experiment: Mitochondrial membrane potential (safranine test); type: biochemical, Wistar rats; conditions: at concentrations up to 100 mkM
Method: The same experimental conditions were used for the assessment of alterations of the mitochondrial membrane potential, except that safranine was included in incubation medium at a final concentration of 10 mkM and succinate was added before the compounds of the invention. This concentration of safranine was determined before hand as the optimal compromise between signal/baseline ratio and interference of safranine itself with swelling induced by Ca/Pi (safranine tended to enhance Ca/Pi-induced swelling at concentrations above 20 mkM). Changes in the status of the mPT pore were assessed spectrophotometrically at 554 and 524 nm in a cuvette in a Beckman DU 640 spectrophotometer. A554-524 represents the characteristics of mitochondrial potential and A554-characteristics of mitochondrial swelling.

[3] = test system: synaptosomes of cortex of rat brain; experiment: Glutamate-induced 45Ca2+ uptake into synaptosomes; type: biochemical, Wistar rats; conditions: for glutamate-induced 45Ca2+ uptake into synaptosomes of rat cortex, % of control: 50-100 μM; for % Ca of control (control-100%), glutamate-induced 45Ca2+ uptake into synaptosomes: rat cortex synaptosomes
Method: Synaptosomes were obtained from cerebral cortex of newborn (9-10 days) Wistar rats using standard Hajos method. The brain was homogenized with 10 volumes of cooled 0.32 M sucrose at 900 rpm. The homogenate was centrifuged at 1500 g for 10 min. and the resulted supernatant was centrifuged at 10000 g for 20 min. The radioactive label was accumulated by suspension of the synaptosomal P2-fraction in the incubation buffer A having the following composition: 132 mM NaCl, 5 mM KCl, 5 mM HEPES, 10 mM glucose, pH 7.4 (protein concentration of approximately 1.5-2 mg/ml). The mixture was further incubated for 5 min with 200 μM glutamate at 37° C. and then ^45Ca^2+ uptake was stopped by filtration through GF/B filters (Whatman, England) followed by three washes with cold buffer B (145 mM KCl, 10 mM Tris, 5.4 mM Trilon B, pH 7.4). The radioactivity probes were analyzed by fluid scintillation beta-analyzer (TriCarb, Perkin Elmer). All tests were performed in three parallel trials in 2-3 independent experiments. The amount of ^45Ca^2+ uptake was estimated by calculating the difference of radioactive label during the stimulation with glutamate and without the stimulation with agonist.
Specific ^45Ca^2+ uptake was estimated using the following equation: K(43/21)=[(Ca4−Ca3)/(Ca2−Ca1)]100%, where
Ca1—^45Ca^2+ uptake for the Control (without glutamate and the compound tested),
[…] glutamate-induced ^45Ca^2+ uptake (glutamate only),
Ca3—^45Ca^2+ uptake in the presence of the compound tested (without glutamate),
Ca4—^45Ca^2+ uptake in the presence of glutamate and the testing compound.
Statistical analysis of the results was performed using Student's t-test.

[4] = concentration reducing to 50% the initial rate of turbidity fall after calcium addition, read-out: IC50, decrease of calcium-induced swelling of brain mitochondria
[5] = read-out: IC50, Ca2+-induced (25-50 μM) swelling of brain mitochondria, rat brain mitochondria, Ca2+ 25-50 μM

Row | IC50 (rat brain mitochondria [1]; [4]) | IC50 (rat brain mitochondria [1]; [5]) | SMILES | kainic acid-induced currents in Purkinje cells, % of Control values (AMPA receptors; compound 10^−5 M) | kainic acid-induced currents in Purkinje cells, % of Control values (AMPA receptors; compound 10^−6 M) | kainic acid-induced currents in Purkinje cells, % of Control values (AMPA receptors; compound 10^−7 M) | kainic acid-induced currents in Purkinje cells, % of Control values (AMPA receptors; compound 10^−8 M) | kainic acid-induced currents in Purkinje cells, % of Control values (AMPA receptors; compound 10^−9 M) | A540 increase in mitochondrial suspension after addition of 100 μM of compound (rat brain mitochondria [1]; rat brain mitochondria) | depolarization of brain mitochondria (rat brain mitochondria [2]) | inhibition of glutamate-induced 45Ca2+ uptake into synaptosomes ([3]; 0.5 μM) | glutamate-induced 45Ca2+ uptake into synaptosomes of rat cortex, % of control [3] | % Ca of control (control-100%), glutamate-induced 45Ca2+ uptake into synaptosomes ([3]; compound 0.1 μM) | % Ca of control (control-100%), glutamate-induced 45Ca2+ uptake into synaptosomes ([3]; compound 0.5 μM) | % Ca of control (control-100%), glutamate-induced 45Ca2+ uptake into synaptosomes ([3]; compound 1 μM) | % Ca of control (control-100%), glutamate-induced 45Ca2+ uptake into synaptosomes ([3]; compound 5 μM) | % Ca of control (control-100%), glutamate-induced 45Ca2+ uptake into synaptosomes ([3]; compound 10 μM) | % Ca of control (control-100%), glutamate-induced 45Ca2+ uptake into synaptosomes ([3]; compound 50 μM) | % Ca of control (control-100%), glutamate-induced 45Ca2+ uptake into synaptosomes ([3]; compound 100 μM) | kainic acid-induced currents in Purkinje cells, % of Control values (AMPA receptors; compound 3 × 10^−5 M) | concentration at which glutamate-induced 45Ca2+ uptake into synaptosomes was not affected [3]
1 | ~94 µM | 93.9 ± 16.4 µM | CN1CCc2c(c3ccccc3n2CCc2nc(-c3ccncc3)cs2)C1 [Compound C1-4] | 100 ± 9% | 109 ± 12% | 114 ± 5% | 119 ± 6% | 129 ± 9% | 1 rel.units | No depolarization | ~12.6% | ~131% | 99.1 ± 2.5% | 87.4 ± 3.7% | 96.2 ± 5.0% | 94.9 ± 5.7% | 94.3 ± 2.7% | 112.7 ± 10.1% | 131.5 ± 0.1% |  | 
2 | ~76 µM | 76 ± 12 µM | CN1CCc2c(c3ccccc3n2CCc2noc(-c3ccncc3)n2)C1 [Compound C4-3] | 100 ± 6% | 139 ± 11% | 149 ± 15% | 145 ± 12% | 100 ± 3% | 1 rel.units | No depolarization |  | ~126% | 93.2 ± 3.0% | 92.1 ± 3.3% | 101.0 ± 1.0% | 93.7 ± 6.8% | 94.7 ± 6.9% | 117.9 ± 6.0% | 125.6 ± 3.9% | 80 ± 10% | 0.1 to 50 µM
